Reference: patent publication US9034899B2, “Aryl, heteroaryl, and heterocycle substituted tetrahydroisoquinolines and use thereof” (Albany Molecular Research, Inc., priority 2009, dated 2015)

What was measured:
[1] = target: hSERT (Homo sapiens (Human), UniProt P31645); assay: SERT radioligand binding assay ([125I]RTI-55, HEK-293 membranes); details: (+)-enantiomers; read-out: SERT IC50
Description: The medium was removed from the flasks and the cells rinsed with HBSS without Ca and without Mg. The cells were then incubated for 5-10 minutes in 10 mM Tris-Cl, pH 7.5, 5 mM EDTA before the cells were lifted with a combination of pipetting and scraping, as needed. The cell suspension was collected into centrifuge bottles and homogenized for 30 seconds with a Polytron homogenizer. The suspension was centrifuged for 30 minutes at 32,000×g, 4° C. The supernatant was decanted and the pellet resuspended and homogenized in 50 mM Tris-Cl, pH 7.5, 1 mM EDTA for 10 seconds. The suspension was then centrifuged again for 30 minutes at 32,000×g, 4° C. The supernatant was decanted and the pellet resuspended in 50 mM Tris-Cl, pH 7.5, 1 mM EDTA and briefly homogenized. A Bradford assay (Bio-rad) was performed and the membrane preparation diluted to 2 mg/ml with 50 mM Tris-Cl, pH 7.5, 1 mM EDTA. Aliquots were prepared, and then frozen and stored at −80° C.
Compounds were dissolved in 100% DMSO at a concentration 100 times the desired highest assay concentration, serially diluted 1:3 in 100% DMSO, and 0.4 μl/well of each solution was dispensed to a Nunc polypropylene, round bottom, 384-well plate. […] The contents of the assay plate were then transferred to a Millipore MultiscreenHTS GF/B filter plate which was pretreated with 0.5% PEI for at least one hour. The plate was vacuum filtered and washed with 7 washes of 100 μl/well 50 mM Tris-Cl, pH 7.5, 120 mM NaCl, 5 mM KCl chilled to 4° C. The filtration and washing were completed in less than 90 seconds. The plates were air-dried overnight, 12 μl/well of MicroScint scintillation fluid added, and the plates counted in a Trilux.
Each plate was run in triplicate, and the concentration response curve thus generated was fit using the four-parameter dose response equation, Y=Bottom+(Top-Bottom)/(1+10^((LogIC50−X)*HillSlope)) in order to determine the IC50 value for each compound. The radioligand concentration chosen for each assay corresponds to the Kd concentration determined through saturation binding analysis for each assay.

[2] = tested on: SERT; assay: Occupancy assay, ex vivo binding in brain tissue, SERT
Text: (§1) The general procedure for brain tissue collection and transporter occupancy assessment is briefly described as follows. Mice were sacrificed by asphyxiation in CO2, rats by decapitation and dogs by IV injection of euthanasia solution. For mice and rats, after the brains were removed from the skull, the forebrain tissue (removal of the brainstem and cerebellum) was used for SERT, NET, and DAT occupancy assessment. In dogs, the striatum was dissected for DAT occupancy and the remaining forebrain tissue (without the striatum, brainstem, and cerebellum) was used for SERT and NET occupancy assessment. The brain tissues were frozen in chilled isopentane and stored at −80° C. until homogenization.
(§2) The brain tissues were thawed and then homogenized using a polytron homogenizer (Kinematica). Sample aliquots were frozen immediately and stored at −80° C. Protein content was measured for each sample using a Coomassie protein assay kit (Pierce).
(§3) On the day of ex vivo binding for occupancy assessment, frozen sample aliquots were thawed and needle homogenized, and 100 μg of the tissue was incubated for SERT, NET, and DAT binding under assay conditions summarized in Table 2. After incubation, the reactions were terminated by the addition of ice-cold assay buffer and rapid filtration through a Brandel Cell Harvester using FPXLR-196 filters. The filters were washed twice with ice-cold incubation buffer, punched into a clear plate prior to the addition of 200 ul scintillation fluid per well. Radioligand was measured using a Wallac Microbeta liquid scintillation counter.
The specific binding was calculated by subtracting the value of the non-specific binding from that of the total binding in each sample. The percent occupancy was calculated as (1−specific binding in drug treated/specific binding in vehicle treated)×100%. For estimation of in vivo occupancy EC50 (total plasma concentration of compound producing 50% occupancy), plots of occupancy values versus plasma concentrations were fitted to a one-site binding model using nonlinear regression according to the following equation: % Occupancy=Emax*C/(EC50+C) where Emax is the maximal specific binding, C is the drug concentration, and EC50 is the total plasma concentration required for 50% binding site occupancy. Nonlinear regression was performed using GraphPad Prism version 3.00 (GraphPad Software, San Diego, Calif.).

[3] = tested on: DAT; assay: Occupancy assay, ex vivo binding in brain tissue, DAT
Text: as §1, §2
as §3, with “After incubation, the reactions were terminated by the addition of ice-cold assay buffer and rapid filtration through a Brandel Cell Harvester using FPXLR-196 filters.” left out
The specific binding was calculated by subtracting the value of the non-specific binding from that of the total binding in each sample. The percent occupancy was calculated as (1−specific binding in drug treated/specific binding in vehicle treated)×100%. […] Nonlinear regression was performed using GraphPad Prism version 3.00 (GraphPad Software, San Diego, Calif.).

Chain of hSERT (P31645 whole entry): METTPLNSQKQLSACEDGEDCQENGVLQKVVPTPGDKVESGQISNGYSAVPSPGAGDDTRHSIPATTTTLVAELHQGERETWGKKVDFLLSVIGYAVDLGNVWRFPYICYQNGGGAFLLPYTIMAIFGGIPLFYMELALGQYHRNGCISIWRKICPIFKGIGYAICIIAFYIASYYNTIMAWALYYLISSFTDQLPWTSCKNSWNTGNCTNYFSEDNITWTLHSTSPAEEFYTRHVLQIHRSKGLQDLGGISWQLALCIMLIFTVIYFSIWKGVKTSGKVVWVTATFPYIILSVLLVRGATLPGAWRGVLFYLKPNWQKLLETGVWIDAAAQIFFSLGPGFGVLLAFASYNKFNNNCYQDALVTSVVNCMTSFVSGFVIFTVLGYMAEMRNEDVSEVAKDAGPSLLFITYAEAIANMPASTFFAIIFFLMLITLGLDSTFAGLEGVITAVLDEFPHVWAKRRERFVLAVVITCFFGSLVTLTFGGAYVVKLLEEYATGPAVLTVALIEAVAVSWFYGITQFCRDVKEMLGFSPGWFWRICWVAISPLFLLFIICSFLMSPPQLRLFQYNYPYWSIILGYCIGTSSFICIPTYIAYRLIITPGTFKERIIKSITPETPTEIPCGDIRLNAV

## CC1(C)NCC(c2ccc(Cl)c(Cl)c2)c2ccc(-c3ccc4ncnn4c3)cc21 (stereo not drawn) [Example 40, 4-(3,4-dichlorophenyl)-7-([1,2,4]triazolo[1,5-a]pyridin-6-yl)-1,1-dimethyl-1,2,3,4-tetrahydroisoquinoline]
[1]
  IC50: 4.2 nM
[2]; dose 3 mg/kg, time point 3 h
  SERT Occupancy %: 74%
[3]; dose 3 mg/kg, time point 3 h
  DAT Occupancy %: 78%

## FC(F)Oc1ccc(-c2ccc3c(c2)CNCC3c2ccc(Cl)c(Cl)c2)nn1 (stereo not drawn) [Example 12, 4-(3,4-dichlorophenyl)-7-(6-(difluoromethoxy)pyridazin-3-yl)-1,2,3,4-tetrahydroisoquinoline]
[1]
  IC50: 3.6 nM
[2]; dose 1 mg/kg, time point 3 h
  SERT Occupancy %: 82%
[3]; dose 1 mg/kg, time point 3 h
  DAT Occupancy %: 15%

## Cc1noc(C)c1-c1ccc2c(c1)CNCC2c1ccc(Cl)c(Cl)c1 (stereo not drawn) [Example 25, 4-(4-(3,4-dichlorophenyl)-1,2,3,4-tetrahydroisoquinolin-7-yl)-3,5-dimethylisoxazole]
[1]
  IC50: 4.9 nM
[2]; dose 1 mg/kg, time point 3 h
  SERT Occupancy %: 50%
[3]; dose 1 mg/kg, time point 3 h
  DAT Occupancy %: 0%

## CC1(C)NCC(c2ccc(Cl)c(Cl)c2)c2ccc(-c3ccc(N)nn3)cc21 (stereo not drawn) [Example 13, 4-(3,4-dichlorophenyl)-7-(6-aminopyridazin-3-yl)-1,1-dimethyl-1,2,3,4-tetrahydroisoquinoline]
[1]
  IC50: 2.3 nM
[2]; dose 3 mg/kg, time point 3 h
  SERT Occupancy %: 55%
[3]; dose 3 mg/kg, time point 3 h
  DAT Occupancy %: 53%

## Clc1ccc(C2CNCc3cc(-c4cccnn4)ccc32)cc1Cl (stereo not drawn) [Example 33, 4-(3,4-dichlorophenyl)-7-(pyridazin-3-yl)-1,2,3,4-tetrahydroisoquinoline]
[1]
  IC50: 6.2 nM
[2]; dose 1 mg/kg, time point 1 h
  SERT Occupancy %: 49%
[3]; dose 1 mg/kg, time point 1 h
  DAT Occupancy %: 8%

## Nc1ccc(-c2ccc3c(c2)CNCC3c2ccc(Cl)c(Cl)c2)nn1 (stereo not drawn) [Example 34, 6-(4-(3,4-dichlorophenyl)-1,2,3,4-tetrahydroisoquinolin-7-yl)pyridazin-3-amine]
[1]
  IC50: 1.8 nM
[2]; dose 1 mg/kg, time point 1 h
  SERT Occupancy %: 10%
[3]; dose 1 mg/kg, time point 1 h
  DAT Occupancy %: 0%

## CC1(C)NCC(c2ccc(Cl)c(Cl)c2)c2ccc(-c3cccnn3)cc21 (single isomer, unassigned) [Example 9, 4-(3,4-dichlorophenyl)-1,1-dimethyl-7-(pyridazin-3-yl)-1,2,3,4-tetrahydroisoquinoline]
[1]
  IC50: 4.8 nM
[2]; dose 1 mg/kg, time point 1 h
  SERT Occupancy %: 60%
[3]; dose 1 mg/kg, time point 1 h
  DAT Occupancy %: 71%
